{
  "source": "paper PMC3328449",
  "about": "“Inhibition of Diacylglycerol–Sensitive TRPC Channels by Synthetic and Natural Steroids” (PLoS ONE, 2012)",
  "target": "T1, mTRPC4ß (Mus musculus, UniProt Q9QUQ5)",
  "T1 construct": "expressed in transfected cells",
  "T1 sequence (Q9QUQ5 1-890 isoform Q9QUQ5-2)": "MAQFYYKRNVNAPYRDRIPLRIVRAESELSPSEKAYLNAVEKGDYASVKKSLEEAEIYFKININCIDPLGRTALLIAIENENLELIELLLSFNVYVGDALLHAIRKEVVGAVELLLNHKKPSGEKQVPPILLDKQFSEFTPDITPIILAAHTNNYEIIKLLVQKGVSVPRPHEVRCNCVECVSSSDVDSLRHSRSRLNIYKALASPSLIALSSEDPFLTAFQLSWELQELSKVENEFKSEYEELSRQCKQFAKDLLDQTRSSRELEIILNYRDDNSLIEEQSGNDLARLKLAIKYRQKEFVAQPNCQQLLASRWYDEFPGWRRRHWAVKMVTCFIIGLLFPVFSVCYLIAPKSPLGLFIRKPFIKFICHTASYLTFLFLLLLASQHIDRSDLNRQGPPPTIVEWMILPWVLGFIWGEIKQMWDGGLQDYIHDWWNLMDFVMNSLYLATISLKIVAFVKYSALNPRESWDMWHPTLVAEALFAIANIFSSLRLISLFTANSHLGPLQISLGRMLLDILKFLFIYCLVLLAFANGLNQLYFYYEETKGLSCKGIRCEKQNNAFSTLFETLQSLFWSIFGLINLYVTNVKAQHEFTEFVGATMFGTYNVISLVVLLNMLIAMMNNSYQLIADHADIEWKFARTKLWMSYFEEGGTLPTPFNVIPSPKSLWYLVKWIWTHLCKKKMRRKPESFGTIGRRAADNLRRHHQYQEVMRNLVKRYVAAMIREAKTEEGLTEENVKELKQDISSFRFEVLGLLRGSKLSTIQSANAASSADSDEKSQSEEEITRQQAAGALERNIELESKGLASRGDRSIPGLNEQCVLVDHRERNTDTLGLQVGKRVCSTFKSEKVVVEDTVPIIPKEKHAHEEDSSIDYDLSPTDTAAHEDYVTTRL",
  "experiment": "Whole-cell patch clamp, TRPC4 currents",
  "format": "cell-based",
  "settings": "10 µM; not separable from current run-down",
  "protocol": "Cells were grown at 37°C in a humidified atmosphere (5% or 7% CO2) under standard cell culture conditions. Stable human embryonic kidney (HEK) cell lines expressing recombinant mTRPC4ß (GenBank accession number AAC05178); mTRPC5 (GenBank accession number NM_009428) or hTRPC6 (GenBank accession number AF080394) under the control of a tetracycline-inducible promoter were generated using the Flp-In T-Rex (FITR) system (Invitrogen, Karlsruhe, Germany). TRPC4/5/6 HEK-FITR cells were maintained in Dulbecco's modified eagle medium (DMEM, with glutaMAX I, 4.5 g/l glucose and […] sodium pyruvate) supplemented with 10% (v/v) fetal bovine serum (Biochrom, Berlin, Germany), 1 mM glutamine, 1 mM MEM sodium pyruvate, 40 µg/ml hygromycin (50 µg/ml for mTRPC5 HEK-FITR cells), and 15 µg/ml blasticidine HCl. Channel expression was induced by supplementing the growth medium for 18–24 h with 1 µg/ml doxycycline.\nThe whole-cell patch clamp technique was employed to measure ion currents from single cells. […]\nCells grown on poly-L-lysine-coated coverslips were continuously superfused with extracellular solution and substances were applied using an ALA BPS-8 perfusion system (ALA Scientific Instruments, Westbury, USA). […] Cells were held at −70 mV, and current-voltage (I–V) relationships were routinely measured every 2 or 3 s by applying voltage ramps (180 ms) from −100 mV to +80 mV. […]",
  "data": [
    {"molecule": "C#C[C@]1(OC(C)=O)CC[C@H]2[C@@H]3CCC4=CC(=NO)CC[C@@H]4[C@H]3CC[C@@]21CC", "note": "(mixture of isomers) [norgestimate]", "values": [
      {"measurement": "Effect on TRPC4 currents", "result": "apparently small, irreversible"}
    ]}
  ]
}
